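Growth conditions: 96-well plates. Treatment: test compound, 48 hours, 5 concentrations. Analysis: linear interpolation between bracketing concentrations; unreached endpoints set to highest concentration. Abbreviation: GI50, concentration required for 50% inhibition of growth.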 The source made the active and inactive calls. Rule as the data show it: active = GI50 up to about 1.1 µM and inactive = higher.

Test systems include RPMI-8226; K562; U-251; RXF 393; ACHN; MOLT-4; HCT-116; SK-MEL-2; A549; OVCAR-8; NCI-H460; HCT-15; HOP-92; A498; HCC 2998; HOP-62; NCI-H522; SK-MEL-28; KM12; OVCAR-4.
What all share (test): growth of human tumour cells (NCI), 48 h

Consider `CC(C)(C)C1CCC2c3c([nH]c4ccccc34)C3C(=O)N(c4ccccc4Cl)C(=O)C3C2C1` (stereo unspecified), for which the GI50 is 31.4 µM (inactive) in the assay with RPMI-8226; 9.79 µM (inactive) in the assay on K562; 15.6 µM (inactive) with U-251; 11.9 µM (inactive) in the assay with RXF 393; 14.1 µM (inactive) in the assay on ACHN; 17.9 µM (inactive) with MOLT-4. Further, the GI50 is 3.18 µM (inactive) with HCT-116; 17.5 µM (inactive) with SK-MEL-2; 9.2 µM (inactive) with A549; 16 µM (inactive) in the assay with OVCAR-8; 3.48 µM (inactive) in the assay on NCI-H460; 12.1 µM with HCT-15. Further, the GI50 is 0.15 µM (active) in the assay on HOP-92, 17.9 µM (inactive) with A498, 3.41 µM (inactive) in the assay on HCC 2998 and 14.5 µM (inactive) in the assay with HOP-62.
For the molecule `N#Cc1c([N+](=O)[O-])cc(C(F)(F)F)cc1[N+](=O)[O-]`, the GI50 in the assay on RPMI-8226 was 2.57 µM (inactive); in the assay with K562 it was 2.05 µM (inactive); with NCI-H522 it was 0.59 µM (active); with U-251, 18.8 µM (inactive); in the assay with SK-MEL-28, 8.73 µM (inactive); with RXF 393, 2.44 µM (inactive). For the same molecule, the GI50 was 5.25 µM (inactive) in the assay on KM12; 2.11 µM (inactive) with OVCAR-4; 7.5 µM (inactive) in the assay with ACHN; 2.08 µM (inactive) with MOLT-4; 7.76 µM (inactive) in the assay on HCT-116; 18.5 µM (inactive) with SK-MEL-2. Further, the GI50 in the assay with A549 was 19.5 µM (inactive); in the assay with OVCAR-8 it was 2.09 µM (inactive); in the assay with NCI-H460, 19.7 µM (inactive); with HCT-15, 8.89 µM; in the assay with HOP-92, 1.81 µM (inactive); in the assay with A498 it was 18.2 µM (inactive). The GI50 in the assay on HOP-62 was 18.4 µM (inactive).
On to `Cn1c2cccc3nnc4cccc(c4c32)n1C`, for which the GI50 in the assay with RPMI-8226, with K562, in the assay on U-251, in the assay with SK-MEL-28, with RXF 393 and in the assay on KM12 was > 100 µM (inactive) throughout. In addition, the GI50 in the assay on OVCAR-4, in the assay on ACHN, in the assay with MOLT-4, with HCT-116, with SK-MEL-2 and in the assay on A549 was > 100 µM (inactive) throughout. The GI50 in the assay with OVCAR-8 is > 100 µM (inactive); in the assay with NCI-H460 it was > 100 µM (inactive); in the assay on HCT-15 it was more than 100 µM; in the assay with HOP-92, > 100 µM (inactive); with A498 it was > 100 µM (inactive); in the assay with HCC 2998, > 100 µM (inactive).
On to `CN(C)CCC(/C=C/c1ccccc1)=N\Nc1ccccc1`, for which the GI50 in the assay with RPMI-8226 is 0.853 µM (active); in the assay on K562, 0.325 µM (active); in the assay with NCI-H522, 1.84 µM (inactive); with U-251, 1.83 µM (inactive); with SK-MEL-28, 1.8 µM (inactive); with RXF 393, 5.83 µM (inactive). In addition, the GI50 with KM12 is 0.847 µM (active); with OVCAR-4, 4.32 µM (inactive); in the assay on ACHN, 0.37 µM (active); in the assay on MOLT-4, 0.667 µM (active); in the assay on HCT-116 it was 1.9 µM (inactive); in the assay on A549, 1.73 µM (inactive). Further, the GI50 in the assay with OVCAR-8 is 10.7 µM (inactive); in the assay with NCI-H460, 1.41 µM (inactive); in the assay with HCT-15 it was 0.336 µM; in the assay on A498 it was 12.5 µM (inactive); with HOP-62, 2.59 µM (inactive).
Consider `[N-]=[N+]=CC(=O)C1CCCN1C(=O)c1ccccc1` (stereo unspecified), for which the GI50 in the assay with RPMI-8226, with K562, in the assay on U-251, in the assay with SK-MEL-28, in the assay on RXF 393 and with KM12 was > 10 µM (inactive) in each case. Moreover, the GI50 with OVCAR-4, in the assay with ACHN, with MOLT-4, in the assay with HCT-116, in the assay on SK-MEL-2 and in the assay on A549 was > 10 µM (inactive) throughout. Further, the GI50 was > 10 µM (inactive) with OVCAR-8; > 10 µM (inactive) in the assay with NCI-H460; more than 10 µM with HCT-15; > 10 µM (inactive) in the assay on HOP-92; > 10 µM (inactive) with A498; > 10 µM (inactive) in the assay with HCC 2998. In the assay on HOP-62, the GI50 is > 10 µM (inactive).
`COC(=O)C(Cc1c[nH]c2ccccc12)NC(=O)C(Cc1c[nH]cn1)NC(=O)C1CCC(=O)N1C(=O)OCc1ccccc1` (stereo unspecified): the GI50 with RPMI-8226, in the assay on K562, in the assay on U-251, in the assay on SK-MEL-28, in the assay on RXF 393 and with KM12 was > 100 µM (inactive) throughout. The GI50 in the assay with ACHN, in the assay on MOLT-4, in the assay with HCT-116, with SK-MEL-2, in the assay with A549 and in the assay with OVCAR-8 was > 100 µM (inactive) each time. For the same molecule, the GI50 in the assay on NCI-H460 is > 100 µM (inactive); in the assay on HOP-92 it was > 100 µM (inactive); with A498, 7.35 µM (inactive); in the assay with HCC 2998, > 100 µM (inactive); with HOP-62, > 100 µM (inactive).
Take `CC(=O)O[C@H]1CC[C@@]2(C)C(=CC[C@@H]3[C@@H]2CC[C@]2(C)C(=N/O)/C(=C/c4ccc([N+](=O)[O-])cc4)C[C@@H]32)C1`: the GI50 is 1.06 µM (active) with RPMI-8226; 3.1 µM (inactive) in the assay with K562; 2.08 µM (inactive) in the assay on NCI-H522; 11 µM (inactive) in the assay on SK-MEL-28; 32.4 µM (inactive) in the assay on RXF 393; 5.22 µM (inactive) in the assay with KM12. In addition, the GI50 is 17 µM (inactive) with OVCAR-4; 6.22 µM (inactive) in the assay on ACHN; 3.58 µM (inactive) in the assay with MOLT-4; 3.97 µM (inactive) in the assay with HCT-116; 3.53 µM (inactive) in the assay on SK-MEL-2; 4.55 µM (inactive) in the assay on A549. Besides, the GI50 in the assay with NCI-H460 was > 100 µM (inactive); in the assay on HCT-15 it was 4.6 µM; with HOP-92, 11.9 µM (inactive); in the assay with A498 it was 4.71 µM (inactive); with HOP-62 it was 17.3 µM (inactive).
Regarding `C=C1NC(=O)C(CC(C(=O)C(=O)Nc2c(C)cccc2C(C)(C)C)C(=O)c2ccc3ccccc3c2)C(=O)N1` (stereo unspecified), the GI50 in the assay on RPMI-8226, with K562, in the assay with U-251, in the assay with SK-MEL-28, with RXF 393 and with KM12 was > 100 µM (inactive) in each case. Besides, the GI50 with OVCAR-4, in the assay on ACHN, in the assay on MOLT-4, in the assay on HCT-116, in the assay with SK-MEL-2 and with A549 was > 100 µM (inactive) in each case. In addition, the GI50 was > 100 µM (inactive) in the assay with OVCAR-8; > 100 µM (inactive) in the assay on NCI-H460; more than 100 µM with HCT-15; > 100 µM (inactive) with HOP-92; > 100 µM (inactive) with A498; > 100 µM (inactive) with HCC 2998.

These data come from ChEMBL document CHEMBL1201862, “PubChem BioAssay data set” (2004).
